Experiments:
Assay in all cases: relative viability (nuclei count vs DMSO), 5 days (fraction); higher = more cells survive
Tosedostat + Bortezomib = compound: CC(C)C[C@@H](C(=O)N[C@H](C(=O)OC1CCCC1)c1ccccc1)[C@H](O)C(=O)NO [Tosedostat] + CC(C)C[C@H](NC(=O)[C@H](Cc1ccccc1)NC(=O)c1cnccn1)B(O)O [Bortezomib] (partner 0.002 µM)
Summary of the method: (§1)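 Nuclei were stained with Hoechst during a one-step fixation (final 0.05% Triton X-100, 1% formaldehyde, 1 ug/ml Hoechst) carried out 5 days after dosing, then counted on 4× images. The cells, lung cancer lines in 1536-well plates, had been dosed by pin tool the day after seeding with one drug alone or a fixed anchor-drug dose plus five library-drug doses (not always all listed) in √10 steps. Relative viability is the nuclei count in treated wells divided by that in vehicle wells, and each value is the median of duplicate plates.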

Tosedostat + Luminespib = compound: CC(C)C[C@@H](C(=O)N[C@H](C(=O)OC1CCCC1)c1ccccc1)[C@H](O)C(=O)NO [Tosedostat] + CCNC(=O)c1noc(-c2cc(C(C)C)c(O)cc2O)c1-c1ccc(CN2CCOCC2)cc1 [Luminespib] (partner 0.01 µM)
Summary of the method: as §1

Tosedostat + Pemetrexed = compound: CC(C)C[C@@H](C(=O)N[C@H](C(=O)OC1CCCC1)c1ccccc1)[C@H](O)C(=O)NO [Tosedostat] + Nc1nc2[nH]cc(CCc3ccc(C(=O)N[C@@H](CCC(=O)O)C(=O)O)cc3)c2c(=O)[nH]1 [Pemetrexed] (partner 0.2 µM)
Summary of the method: as §1

[1] = compound: CC1=NN=C(O1)C2=NN=C(C=C2)N3CCC(CC3)OC4=C(C=CC(=C4)F)Cl + Cc1cc(Nc2cc(N3CCN(C)CC3)nc(Sc3ccc(NC(=O)C4CC4)cc3)n2)n[nH]1 [Tozasertib] (partner 0.1 µM)
Summary of the method: as §1

Work on UMC-11 yielded a relative viability (Tosedostat + Bortezomib; first compound 0.02 µM) of 0.689, a relative viability (Tosedostat + Bortezomib; first compound 0.06325 µM) of 0.523 and a relative viability (Tosedostat + Bortezomib; first compound 0.2 µM) of 0.752. The relative viability (Tosedostat + Bortezomib; first compound 0.6325 µM) was 0.663, the relative viability (Tosedostat + Bortezomib; first compound 2 µM) was 0.81 and the relative viability (Tosedostat + Luminespib; first compound 0.02 µM) was 1.01. For the same cell line, the relative viability (Tosedostat + Luminespib; first compound 0.06325 µM) was 0.999, the relative viability (Tosedostat + Luminespib; first compound 0.2 µM) was 1.03 and the relative viability (Tosedostat + Luminespib; first compound 0.6325 µM) was 0.977. For the same cell line, the relative viability (Tosedostat + Luminespib; first compound 2 µM) was 1.12, the relative viability (Tosedostat + Pemetrexed; first compound 0.02 µM) was 0.86 and the relative viability (Tosedostat + Pemetrexed; first compound 0.06325 µM) was 0.723. The relative viability (Tosedostat + Pemetrexed; first compound 0.2 µM) was 0.85, the relative viability (Tosedostat + Pemetrexed; first compound 0.6325 µM) was 0.84 and the relative viability (Tosedostat + Pemetrexed; first compound 2 µM) was 0.94. It also gave a relative viability ([1]; first compound 0.253 µM) of 0.181, a relative viability ([1]; first compound 0.8 µM) of 0.184 and a relative viability ([1]; first compound 2.53 µM) of 0.192. It also gave a relative viability ([1]; first compound 8 µM) of 0.169.
